In patent US20210330756A1, “Acetylation of Miro1” (University of South Carolina, priority 2020, published 2021):

System: axonal mitochondria of DRG neurons
Assay: Live cell imaging of axonal mitochondrial movement in cultured DRG neurons
Format: cell-based, rat
Text: HDAC6 inhibition was previously shown to increase transport of mitochondria in axons of embryonic rodent hippocampal and chick sensory neurons (Chen et al., 2010; Kim et al., 2012; Rui and Zheng, 2016; Sainath et al., 2017), and axonal mitochondrial transport has been linked to axon growth (Steketee et al., 2012; Cartoni et al., 2016; Lewis et al., 2016; Zhou et al., 2016). By live cell imaging with MitoTracker to visualize mitochondria, DRG neurons appeared to show increased anterograde versus retrograde mitochondrial movement along axons (FIG. 3 at A and B). […] (A and B) Representative images from CALI time lapse sequence are shown for DRGs cultured on laminin and treated with vehicle control (DMSO) versus 10 μM TubA for 1 h (A). BFP is shown in blue as an axonal marker and Mito-KR signal is shown in red. Boxed regions represent ROI for distal axon and growth cone that was subjected to photoactivation of Mito-KR to ablate mitochondria. […] (C and D) Quantifications of percentage of axons retracting (C) and retraction distance (D) from image sequences as in A are shown as average±SEM (n≥13 across three culture preparations; ***, P≤0.005 by one-way ANOVA with Bonferroni post hoc analysis). (E) Recovery of Mito-KR red fluorescence in photoactivated ROI from image sequences as in A is shown as average of normalized percentage recovery±SEM (n≥13 axons from three independent experiments; *, P≤0.05; **, P≤0.01; ***, P≤0.005 vs. t=0; ###, P≤0.005; ####, P≤0.001, #####, P≤0.0005 for TubA vs. control; and NS vs. t=0 s by one-way ANOVA with Bonferroni post hoc analysis). […]
Quantification of growth cone mitochondria was performed using high-magnification images from living neurons transfected with either Mito-KR or incubated with MitoTracker. […] Only mitochondria that could be distinguished as a single mitochondrion were counted; if this was not possible, that growth cone was not included in the analysis. […]
Vesicle trafficking was quantified using differential ImageJ Difference Tracker Plug-in (Andrews et al., 2010). […] Movement of ≥0.5 μm toward the axon shaft was counted as retracted. […]

Structure (SMILES): CN1CCc2c(c3ccccc3n2Cc2ccc(C(=O)NO)cc2)C1 [TubA, tubastatin]
- mitochondrial profiles in growth cones (10 μM TubA, 1 h vs vehicle): significant increase in mitochondrial profiles in the growth cones
- speed, track durations, directionality of axonal mitochondrial movements (HDAC6-inhibited (10 μM TubA) vs control, laminin): no significant differences
- anterogradely vs retrogradely moving mitochondria in axons (HDAC6-inhibited cultures): more anterogradely than retrogradely moving mitochondria
